Results as given in ChEMBL document CHEMBL1149725, “4-acetylaplykurodin B and aplykurodinone B, two ichthyotoxic degraded sterols from the Mediterranean mollusk Aplysia fasciata” (J Nat Prod, 1992).

Columns and labels:
Format in all cases: organism-based
Conditions in all cases: in vivo; call rule not given here
[1] = test system: Carassius auratus; test: Ichthyotoxicity in Carassius auratus at 60 ug/cm'2 by antifeedant assay
[2] = test system: Gambusia affinis; test: Toxicity in Gambusia affinis at 10 ppm
[3] = test system: Artemia salina; test: Toxicity in Artemia salina

CC(=O)O[C@H]1CC[C@@]2(C)[C@H]3[C@H]1CC(=O)O[C@H]3C[C@@H]2[C@H](C)CCC=C(C)C [4-ACETYLAPLYKURODIN B]
Activity [1]: Active
Activity [2]: Toxic
LC50 [3]: 29.1 ppm

CC(C)=CCC[C@@H](C)[C@H]1C[C@@H]2OC(=O)C[C@H]3C(=O)CC[C@@]1(C)[C@H]23 [APLYKURODINONE]
Activity [1]: Active
Activity [2]: Toxic
